The values that follow come from patent US9073895B2 (Boehringer Ingelheim International GmbH, priority 2010, dated 2015).

In assay [1] the test system is biomarkers for myocardial infarction risk. The following applies: clinical trial; cited from earlier work.
For assay [2], the system named is ApoExCD4dnT RII mice. The following applies: infusion, treated for four weeks; cited from earlier work.
Assay [3] relates to apoE/LDL-R double knockout mice. The following applies: oral dosing, high-fat diet from 2 months of age to 6 months; cited from earlier work.
Assay [4] has as its system human glomerulonephritis. The following applies: clinical trial; cited from earlier work.
For assay [5], the target named is T1, recombinant human FLAP protein (Homo sapiens, UniProt P20292).
T1 construct: made in house; host or cells: Sf9 insect cells (membrane fraction, 100,000 x g pellet)
T1 sequence (P20292 1-161): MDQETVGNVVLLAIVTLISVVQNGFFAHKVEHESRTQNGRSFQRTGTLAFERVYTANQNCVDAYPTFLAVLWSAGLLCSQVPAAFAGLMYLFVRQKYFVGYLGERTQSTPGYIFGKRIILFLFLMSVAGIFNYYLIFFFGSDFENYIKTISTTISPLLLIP
Nature of the assay: FLAP binding assay (SPA, displacement of [125I]L-691,831). The following applies: membranes of sf9 cells expressing human FLAP, [125I]L-691,831 probe; read-out: hFLAP binding IC50. The procedure, abridged:
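Membranes from sf9 cells expressing human FLAP (5 μg/well) were bound to WGA SPA beads (200 μg/well). Nonspecific binding was defined with 10 μM unlabelled L-691,831.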
In general terms: Displacement assays read how much labelled ligand stays bound in the presence of the test substance.

For assay [6], the system named is synthesis of LTB4 in human whole blood. The experiment in a line: Human whole blood LTB4 production inhibition assay. In kind it is cell-based. The following applies: heparinized human whole blood, calcimycin 20 μM, plasma LTB4; read-out: HuWB IC50. The procedure, abridged: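 Readout: plasma LTB4 by antibody-based HTRF. Compound added to heparinized human whole blood, 15 min 37° C; calcimycin 20 μM final (PBS pH 7.4), 30 min 37° C; spun 1500×g 5 min, plasma taken.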

As to `O=C(O)[C@@H](c1ccc(OCc2ccc3ccccc3n2)cc1)C1CCCC1` [DG-031], the “effect on biomarkers for myocardial infarction risk” value in assay [1] is “dose-dependent suppression of several biomarkers”. For the compound `CC(C)c1ccc2c(c1)c(SC(C)(C)C)c(CC(C)(C)C(=O)O)n2Cc1ccc(Cl)cc1` [MK-886], the “decrease in plaque area in the aortic root” value in assay [2] was around 40%. For the same compound, in assay [3], the “decrease in plaque coverage in the aorta” value was 56% and the “decrease in plaque coverage in the aortic root” value is 43%.

In the case of `CC(C)(C)Sc1c(CC(C)(C)C(=O)O)n(Cc2ccc(Cl)cc2)c2ccc(OCc3ccc4ccccc4n3)cc12` [MK-591], the effect on proteinuria entry in assay [4] was “reduce proteinuria”.

As for `Cn1ccc(NC(=O)C2(c3ccc(-c4cnc(N)nc4)cc3)CCC2)cc1=O` [Example 216, 1-[4-(2-aminopyrimidin-5-yl)phenyl]-N-(1-methyl-2-oxo-1,2-dihydropyridin-4-yl)cyclobutanecarboxamide], the results for the IC50 in assay [5] and in assay [6] were 91.5 nM and 3040 nM, respectively. On to `Cc1cc(NC(=O)C2(c3ccc(-c4cnc(N)nc4)cc3)CCC2)ccn1` [Example 186, 1-[4-(2-aminopyrimidin-5-yl)phenyl]-N-(2-methylpyridin-4-yl)cyclobutanecarboxamide], for which the IC50 in assay [5] turned out to be 3.2 nM; in assay [6], 334 nM. For `COc1cncc(-c2ccc(NC(=O)C3(c4ccc(-c5cnc(N)nc5)nc4)CCOCC3)nc2)c1` [Example 132, 4-[6-(2-aminopyrimidin-5-yl)pyridin-3-yl]-N-(5′-methoxy-3,3′-bipyridin-6-yl)tetrahydro-2H-pyran-4-carboxamide], in that order: 220 nM and 1510 nM.

With `CC(C)(C)c1noc(NC(=O)C2(c3ccc(-c4cnc(N)nc4)cc3)CCCCC2)n1` [Example 126, 1-[4-(2-aminopyrimidin-5-yl)phenyl]-N-(3-tert-butyl-1,2,4-oxadiazol-5-yl)cyclohexanecarboxamide], the IC50 amounted to 180 nM in assay [5] and 12000 nM in assay [6]. In the case of `N#Cc1ccc(NC(=O)C2(c3ccc(-c4cnc(N)nc4)nc3)CCC2)nc1` [Example 94, 1-[6-(2-aminopyrimidin-5-yl)pyridin-3-yl]-N-(5-cyanopyridin-2-yl)cyclobutanecarboxamide], the IC50 was 65 nM in assay [5] and 857 nM in assay [6]. The corresponding values for `Nc1ncc(-c2ccc(C3(C(=O)Nc4ccc(C(F)(F)F)c(F)c4)CCOCC3)cc2)cn1` [Example 83, 4-[4-(2-aminopyrimidin-5-yl)phenyl]-N-[3-fluoro-4-(trifluoromethyl)phenyl] tetrahydro-2H-pyran-4-carboxamide] are 14.5 nM and 1060 nM. On to `Nc1ncc(-c2ccc(C3(C(=O)Nc4nc(-c5cccnc5)cs4)CCC3)cc2)cn1` [Example 253, 1-[4-(2-aminopyrimidin-5-yl)phenyl]-N-[4-(pyridin-3-yl)-1,3-thiazol-2-yl]cyclobutanecarboxamide], for which the figures for the half-maximal inhibitory concentration (IC50) in assay [5] and in assay [6] were 1.8 nM and 270 nM, respectively. Regarding `Cc1nc(-c2ccc(NC(=O)C(C)(C)c3ccc(-c4cnc(N)nc4)cc3)nc2)cs1` [Example 235, 2-[4-(2-aminopyrimidin-5-yl)phenyl]-2-methyl-N-[5-(2-methyl-1,3-thiazol-4-yl)pyridin-2-yl]propanamide], the IC50 turned out to be 5.4 nM in assay [5] and 627 nM in assay [6]. The corresponding values for `COc1ccc(Oc2ccccc2)cc1NC(=O)C1(c2ccc(-c3cnc(N)nc3)cc2)CCOCC1` [Example 76, 4-[4-(2-aminopyrimidin-5-yl)phenyl]-N-(2-methoxy-5-phenoxyphenyl)tetrahydro-2H-pyran-4-carboxamide] are 52.5 nM and above 3000 nM. `CNc1ncc(-c2ccc(C3(C(=O)Nc4cccnc4)CCC3)cc2)cn1` [Example 192, 1-{4-[2-(methylamino)pyrimidin-5-yl]phenyl}-N-(pyridin-3-yl)cyclobutanecarboxamide]: the results for the IC50 in assay [5] and in assay [6] were 32 nM and 861 nM, respectively. For `Cc1nc(-c2ccc(NC(=O)C3(c4ccc(-c5cnc(N)c(C)n5)cc4)CCOCC3)nc2)cs1` [Example 182, 4-[4-(5-amino-6-methylpyrazin-2-yl)phenyl]-N-[5-(2-methyl-1,3-thiazol-4-yl)pyridin-2-yl]tetrahydro-2H-pyran-4-carboxamide], the IC50 turned out to be 32.5 nM in assay [5] and 1060 nM in assay [6]. Regarding `Cn1cc(-c2ccc(NC(=O)C3(c4ccc(-c5cnc(N)nc5)cc4)CCC3)nc2)cn1` [Example 255, 1-[4-(2-aminopyrimidin-5-yl)phenyl]-N-[5-(1-methyl-1H-pyrazol-4-yl)pyridin-2-yl]cyclobutanecarboxamide], the IC50 in assay [5] was 2.5 nM; in assay [6] it was 144 nM. The corresponding values for `Nc1ncc(-c2ccc(C3(C(=O)Nc4ccc(C(F)(F)F)nc4)CCOCC3)cc2)cn1` [Example 48, 4-[4-(2-aminopyrimidin-5-yl)phenyl]-N-[6-(trifluoromethyl)pyridin-3-yl]tetrahydro-2H-pyran-4-carboxamide] are 84 nM and 1630 nM.

Regarding `Cc1nc(NC(=O)C2(c3ccc(-c4cnc(N)nc4)cc3)CCOCC2)ccc1C#N` [Example 52, 4-[4-(2-aminopyrimidin-5-yl)phenyl]-N-(5-cyano-6-methylpyridin-2-yl)tetrahydro-2H-pyran-4-carboxamide], the half-inhibitory concentration (IC50) in assay [5] turned out to be 63.5 nM; in assay [6], 1810 nM. As for `Cc1nc(-c2ccc(NC(=O)C(C)(c3ccc(-c4cnc(N)nc4)cc3)C(C)C)nc2)cs1` (centres unmarked) [Example 119, 2-[4-(2-aminopyrimidin-5-yl)phenyl]-2,3-dimethyl-N-[5-(2-methyl-1,3-thiazol-4-yl)pyridin-2-yl]butanamide], the IC50 in assay [5] amounted to 3.95 nM; in assay [6] it was 986 nM.

In the case of `COc1cc(NC(=O)C2(c3ccc(-c4cnc5[nH]ccc5c4)cc3)CCC2)ccn1` [Example 190, N-(2-methoxypyridin-4-yl)-1-[4-(1H-pyrrolo[2,3-b]pyridin-5-yl)phenyl]cyclobutanecarboxamide], the results for the IC50 in assay [5] and in assay [6] were 2.25 nM and 149 nM, respectively. Regarding `COc1ncc(-c2ccc(C(C)(C(=O)Nc3ccc(-c4csc(C)n4)cc3)C(C)C)cc2)cn1` (centres unmarked) [Example 116, 2-[4-(2-methoxypyrimidin-5-yl)phenyl]-2,3-dimethyl-N-[4-(2-methyl-1,3-thiazol-4-yl)phenyl]butanamide], the concentration for half-maximal inhibition (IC50) was 430 nM in assay [5] and 10800 nM in assay [6].

As to `Nc1ncc(-c2ccc(C3(C(=O)Nc4ccc5cnccc5c4)CCOCC3)cc2)cn1` [Example 51, 4-[4-(2-aminopyrimidin-5-yl)phenyl]-N-(isoquinolin-6-yl)tetrahydro-2H-pyran-4-carboxamide], the values for the IC50 in assay [5] and in assay [6] were 18 nM and 1690 nM, respectively. As for `N#Cc1ccc(NC(=O)C2(c3ccc(-c4cnc(N)nc4)cc3)CCOCC2)cc1Cl` [Example 3, 4-[4-(2-aminopyrimidin-5-yl)phenyl]-N-(3-chloro-4-cyanophenyl)tetrahydro-2H-pyran-4-carboxamide], the IC50 in assay [5] is 11.2 nM; in assay [6], 328 nM. The corresponding values for `Nc1ncc(-c2ccc(C3(C(=O)Nc4cccnc4)CCC3)cc2)cn1` [Example 183, 1-[4-(2-aminopyrimidin-5-yl)phenyl]-N-(pyridin-3-yl)cyclobutanecarboxamide] are 51.6 nM and 480 nM. The corresponding values for `N=C(N)NC(=O)c1ccc(NC(=O)C2(c3ccc(-c4cnc(N)nc4)cc3)CCC2)nc1` [Example 108, 6-[({1-[4-(2-aminopyrimidin-5-yl)phenyl]cyclobutyl}carbonyl)amino]-N-carbamimidoylpyridine-3-carboxamide] are 2 nM and 1900 nM. On to `Nc1ncc(-c2ccc(C3(C(=O)Nc4ccc(-c5ccncc5)cn4)CCC3)cc2)cn1` [Example 238], for which the IC50 in assay [5] stood at 2.35 nM; in assay [6] it was 74.5 nM.

Regarding `Nc1ncc(-c2ccc(C3(C(=O)Nc4ccc(Cc5ccccc5)cc4)CCOCC3)cc2)cn1` [Example 54, 4-[4-(2-aminopyrimidin-5-yl)phenyl]-N-(4-benzylphenyl)tetrahydro-2H-pyran-4-carboxamide], the figures for the IC50 in assay [5] and in assay [6] were 44.5 nM and 1120 nM, respectively. In the case of `Cc1nc(-c2ccc(NC(=O)C(C)(c3ccc(-c4cnc(N)nc4)cc3)C(C)C)cc2)cs1` (centres unmarked) [Example 117, 2-[4-(2-aminopyrimidin-5-yl)phenyl]-2,3-dimethyl-N-[4-(2-methyl-1,3-thiazol-4-yl)phenyl]butanamide], the IC50 in assay [5] is 9.3 nM; in assay [6], 1530 nM.

By IC50 is commonly meant the midpoint of a concentration-inhibition curve.
